Activity calls are given as the source filed them.
Legend:
[1] = target: DNA dC->dU-editing enzyme APOBEC-3A (Homo sapiens, UniProt P31941); experiment: APOBEC3A DNA deaminase inhibitors, dose response, biochemical (AID 504722); format: functional
[2] = target: DNA dC->dU-editing enzyme APOBEC-3G (Homo sapiens, UniProt Q9HC16); experiment: Dose Response confirmation of small molecule APOBEC3G DNA Deaminase Inhibitors via a fluorescence-based single-stranded DNA deaminase assay. [Related pubchem assays (depositor defined):AID493012, AID493028]; format: functional
Sequence of DNA dC->dU-editing enzyme APOBEC-3G (Q9HC16 whole entry): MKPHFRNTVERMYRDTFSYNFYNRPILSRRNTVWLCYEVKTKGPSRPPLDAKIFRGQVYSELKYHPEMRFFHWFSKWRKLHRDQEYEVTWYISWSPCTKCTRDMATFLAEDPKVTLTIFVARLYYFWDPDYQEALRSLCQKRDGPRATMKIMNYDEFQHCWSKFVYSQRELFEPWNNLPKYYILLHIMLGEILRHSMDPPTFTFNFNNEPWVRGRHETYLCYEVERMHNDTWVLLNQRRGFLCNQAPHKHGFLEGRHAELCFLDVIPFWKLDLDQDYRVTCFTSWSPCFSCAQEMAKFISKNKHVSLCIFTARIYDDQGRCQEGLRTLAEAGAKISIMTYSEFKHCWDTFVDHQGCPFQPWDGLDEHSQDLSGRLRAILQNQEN

[3] = target: Delta-type opioid receptor (Homo sapiens, UniProt P41143); experiment: Counterscreen for agonists of heterodimerization of the mu 1 (OPRM1) and delta 1 (OPRD1) opioid receptors: Luminescence-based cell-based high throughput dose response assay to identify agonists of OPRD1 homodimerization. [Related pubchem assays (depositor defined):AID504326, AID504355, AID504692, AID504904, AID504905]; format: functional
Sequence of Delta-type opioid receptor (P41143 whole entry): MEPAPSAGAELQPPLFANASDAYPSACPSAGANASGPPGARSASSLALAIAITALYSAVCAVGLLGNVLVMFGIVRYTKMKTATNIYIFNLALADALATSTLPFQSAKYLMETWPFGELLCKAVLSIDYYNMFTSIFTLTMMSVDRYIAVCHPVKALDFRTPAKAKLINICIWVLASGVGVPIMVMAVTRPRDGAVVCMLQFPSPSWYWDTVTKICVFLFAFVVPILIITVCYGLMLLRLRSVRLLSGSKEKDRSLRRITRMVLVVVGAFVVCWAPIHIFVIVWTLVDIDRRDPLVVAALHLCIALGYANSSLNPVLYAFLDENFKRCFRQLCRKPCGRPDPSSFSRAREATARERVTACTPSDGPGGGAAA

Mu-type opioid receptor = Mu-type opioid receptor (Homo sapiens, UniProt P35372); experiment: Counterscreen for agonists of heterodimerization of the mu 1 (OPRM1) and delta 1 (OPRD1) opioid receptors: Luminescence-based cell-based high throughput dose response assay to identify agonists of OPRM1 homodimerization.; format: functional;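 further: U2OS cells expressing OPRM1 and beta-arrestin as split beta-galactosidase partners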
Sequence of Mu-type opioid receptor (P35372 whole entry): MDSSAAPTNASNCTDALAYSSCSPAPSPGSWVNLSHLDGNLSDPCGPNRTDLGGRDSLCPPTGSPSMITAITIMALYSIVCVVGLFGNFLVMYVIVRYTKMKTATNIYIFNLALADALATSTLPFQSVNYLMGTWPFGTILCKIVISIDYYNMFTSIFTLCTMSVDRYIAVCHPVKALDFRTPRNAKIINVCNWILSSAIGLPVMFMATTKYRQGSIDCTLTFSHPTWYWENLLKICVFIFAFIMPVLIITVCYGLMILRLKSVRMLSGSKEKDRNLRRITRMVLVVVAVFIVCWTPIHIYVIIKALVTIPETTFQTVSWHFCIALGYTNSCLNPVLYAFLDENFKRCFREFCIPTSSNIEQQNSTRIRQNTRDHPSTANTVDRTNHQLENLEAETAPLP

[4] = target: 5-hydroxytryptamine receptor 5A (Homo sapiens, UniProt P47898); experiment: Counterscreen for agonists of OPRM1-OPRD1 heterodimerization: luminescence-based cell-based high throughput dose response assay to identify agonists of 5-hydroxytryptamine (serotonin) 5A receptor (HTR5A). [Related pubchem assays (depositor defined):AID504326, AID504355, AID504692, AID504904, AID504905]; format: functional
Sequence of 5-hydroxytryptamine receptor 5A (P47898 whole entry): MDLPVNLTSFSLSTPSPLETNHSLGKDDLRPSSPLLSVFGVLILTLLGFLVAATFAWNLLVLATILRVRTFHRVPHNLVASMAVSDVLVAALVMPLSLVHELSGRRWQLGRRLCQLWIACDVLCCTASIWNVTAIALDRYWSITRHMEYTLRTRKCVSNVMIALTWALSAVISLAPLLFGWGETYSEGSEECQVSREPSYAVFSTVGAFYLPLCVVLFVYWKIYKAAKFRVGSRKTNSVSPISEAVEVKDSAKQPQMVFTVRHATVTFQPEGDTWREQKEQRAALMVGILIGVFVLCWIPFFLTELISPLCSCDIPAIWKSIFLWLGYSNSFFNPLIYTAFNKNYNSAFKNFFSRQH

SUMO-activating enzyme = SUMO-activating enzyme (Homo sapiens, UniProt Q9UBT2); experiment: SUMOylation inhibitor hit validation, confirmation, SUMOylation inhibitor project, biochemical, AlphaScreen (AID 2018); format: functional
Sequence of SUMO-activating enzyme (Q9UBE0 whole entry): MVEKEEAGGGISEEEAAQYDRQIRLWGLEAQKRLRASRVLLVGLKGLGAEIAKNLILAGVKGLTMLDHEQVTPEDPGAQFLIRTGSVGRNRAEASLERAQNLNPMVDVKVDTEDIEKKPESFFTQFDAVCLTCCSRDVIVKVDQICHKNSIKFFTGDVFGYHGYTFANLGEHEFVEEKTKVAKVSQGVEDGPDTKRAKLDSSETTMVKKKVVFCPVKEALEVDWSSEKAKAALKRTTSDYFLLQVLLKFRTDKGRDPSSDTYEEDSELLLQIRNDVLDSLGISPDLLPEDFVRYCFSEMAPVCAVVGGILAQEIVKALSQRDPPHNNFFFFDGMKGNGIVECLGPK
Sequence of SUMO-activating enzyme (Q9UBT2 whole entry): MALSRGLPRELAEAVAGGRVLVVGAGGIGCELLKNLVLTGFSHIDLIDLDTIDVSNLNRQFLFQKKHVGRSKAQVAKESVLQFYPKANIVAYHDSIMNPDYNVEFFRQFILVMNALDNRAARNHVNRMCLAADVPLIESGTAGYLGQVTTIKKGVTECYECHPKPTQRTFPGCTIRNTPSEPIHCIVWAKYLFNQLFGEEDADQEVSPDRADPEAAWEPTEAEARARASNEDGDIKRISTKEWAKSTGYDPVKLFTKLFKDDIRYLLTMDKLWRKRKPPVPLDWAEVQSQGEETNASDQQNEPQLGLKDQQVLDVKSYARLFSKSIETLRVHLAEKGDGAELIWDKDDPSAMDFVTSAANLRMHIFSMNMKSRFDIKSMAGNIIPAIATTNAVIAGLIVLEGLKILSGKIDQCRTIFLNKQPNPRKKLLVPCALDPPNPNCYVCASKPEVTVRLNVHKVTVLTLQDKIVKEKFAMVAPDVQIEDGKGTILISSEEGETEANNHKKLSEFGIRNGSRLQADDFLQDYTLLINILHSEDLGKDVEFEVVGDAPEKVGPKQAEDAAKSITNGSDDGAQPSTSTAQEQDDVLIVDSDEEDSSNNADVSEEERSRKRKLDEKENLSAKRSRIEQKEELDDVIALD

[5] = inhibitors of intracellular T. cruzi replication, confirmation, NIH3T3 host cells, beta-gal luminescence (AID 2044); format: functional, cell-based;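 further: intracellular parasites grown in NIH/3T3 mouse fibroblasts as host cells; luminescent beta-galactosidase reporter signal from transgenic T. cruzi replicating inside host cells; inhibitors lower the luminescence signal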
Mucolipin-3 = target: T1, Mucolipin-3 (Homo sapiens, UniProt Q8TDD5); experiment: Dose response cell-based high-throughput screening assay for agonists of the transient receptor potential channel ML3 (TRPML3). [Related pubchem assays: 1526, 1424, 1448 ]; format: functional
T1 sequence (Q8TDD5 whole entry): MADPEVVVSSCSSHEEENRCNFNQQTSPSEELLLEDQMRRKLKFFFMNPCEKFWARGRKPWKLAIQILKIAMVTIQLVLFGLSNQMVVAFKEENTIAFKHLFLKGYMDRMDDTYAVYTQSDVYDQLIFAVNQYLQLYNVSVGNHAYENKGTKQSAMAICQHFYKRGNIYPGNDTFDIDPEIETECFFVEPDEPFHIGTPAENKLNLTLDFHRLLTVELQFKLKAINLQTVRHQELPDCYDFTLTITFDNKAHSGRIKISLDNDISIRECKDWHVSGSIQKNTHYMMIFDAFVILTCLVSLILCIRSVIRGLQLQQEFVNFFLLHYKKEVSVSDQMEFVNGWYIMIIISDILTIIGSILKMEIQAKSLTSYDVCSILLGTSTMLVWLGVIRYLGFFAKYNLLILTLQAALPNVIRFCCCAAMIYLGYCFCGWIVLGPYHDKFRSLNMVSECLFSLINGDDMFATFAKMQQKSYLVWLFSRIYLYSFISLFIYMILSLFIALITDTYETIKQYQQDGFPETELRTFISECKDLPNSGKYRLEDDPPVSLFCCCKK

[6] = cytotoxicity toward NIH3T3 fibroblasts, dose response, counter-screen, cell-based, ATP luminescence, mouse fibroblasts (AID 2010); format: functional;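 further: cells exposed to compound for about 90 hours before reading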
Ion channel NompC = Ion channel NompC (Danio rerio, UniProt Q7T1G6); experiment: Fluorescence counterscreen assay for TRPML3 agonists: dose response cell-based high-throughput screening assay to identify agonists of the transient receptor potential channel N1 (TRPN1). [Related pubchem assays: 1526, 1424, 1448 ]; format: functional
Sequence of Ion channel NompC (Q7T1G6 whole entry): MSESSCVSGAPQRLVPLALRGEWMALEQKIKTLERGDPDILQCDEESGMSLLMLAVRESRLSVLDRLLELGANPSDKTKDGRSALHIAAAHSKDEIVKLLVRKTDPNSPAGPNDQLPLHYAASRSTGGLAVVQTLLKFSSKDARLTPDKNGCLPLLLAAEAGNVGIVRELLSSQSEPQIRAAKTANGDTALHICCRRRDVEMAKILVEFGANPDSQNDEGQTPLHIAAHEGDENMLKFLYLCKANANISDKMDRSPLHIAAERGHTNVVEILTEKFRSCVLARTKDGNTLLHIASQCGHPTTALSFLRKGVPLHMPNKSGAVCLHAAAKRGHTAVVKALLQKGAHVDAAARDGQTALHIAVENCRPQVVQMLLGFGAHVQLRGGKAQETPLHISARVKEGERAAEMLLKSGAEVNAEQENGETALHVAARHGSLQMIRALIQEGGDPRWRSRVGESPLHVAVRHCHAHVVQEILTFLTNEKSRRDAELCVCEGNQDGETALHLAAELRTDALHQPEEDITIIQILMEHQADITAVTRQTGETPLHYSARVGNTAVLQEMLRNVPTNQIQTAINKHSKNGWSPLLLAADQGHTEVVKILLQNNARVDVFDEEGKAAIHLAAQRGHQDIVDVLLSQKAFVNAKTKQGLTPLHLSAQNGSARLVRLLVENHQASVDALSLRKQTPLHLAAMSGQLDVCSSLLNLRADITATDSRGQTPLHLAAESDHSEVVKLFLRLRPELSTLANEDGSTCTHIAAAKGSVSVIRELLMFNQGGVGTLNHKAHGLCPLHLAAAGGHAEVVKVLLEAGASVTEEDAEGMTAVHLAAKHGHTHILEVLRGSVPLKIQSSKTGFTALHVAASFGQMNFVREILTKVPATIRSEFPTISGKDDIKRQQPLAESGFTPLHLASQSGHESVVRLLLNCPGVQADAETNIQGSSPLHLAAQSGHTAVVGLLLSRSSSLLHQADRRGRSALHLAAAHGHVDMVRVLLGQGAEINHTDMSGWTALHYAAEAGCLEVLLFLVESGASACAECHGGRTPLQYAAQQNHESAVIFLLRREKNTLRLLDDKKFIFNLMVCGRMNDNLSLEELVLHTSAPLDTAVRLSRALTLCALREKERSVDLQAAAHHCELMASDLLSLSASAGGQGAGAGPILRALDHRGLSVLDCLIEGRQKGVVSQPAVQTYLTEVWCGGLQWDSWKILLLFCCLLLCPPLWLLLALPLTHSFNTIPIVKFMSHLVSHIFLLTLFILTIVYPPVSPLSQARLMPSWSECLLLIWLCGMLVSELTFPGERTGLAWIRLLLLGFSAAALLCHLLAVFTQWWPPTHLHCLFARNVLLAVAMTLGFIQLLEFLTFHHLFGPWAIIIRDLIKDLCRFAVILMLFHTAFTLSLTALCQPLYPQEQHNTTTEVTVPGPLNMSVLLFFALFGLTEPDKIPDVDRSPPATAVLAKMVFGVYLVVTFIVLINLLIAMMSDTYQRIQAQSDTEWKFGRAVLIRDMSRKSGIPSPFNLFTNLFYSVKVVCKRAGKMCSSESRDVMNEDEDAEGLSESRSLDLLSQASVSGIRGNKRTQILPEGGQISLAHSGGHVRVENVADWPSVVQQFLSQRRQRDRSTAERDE

Cytochrome P450 3A4 = Cytochrome P450 3A4 (Homo sapiens, UniProt P08684);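 further: CYP3A4 tested as one member of a cytochrome P450 panel screen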
[7] = target: Peroxisome proliferator-activated receptor gamma/Nuclear receptor coactivator 2 (Homo sapiens, UniProt P37231); format: functional;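 further: agonist potency for raising coactivator recruitment to the receptor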
[8] = target: Peroxisome proliferator-activated receptor gamma/Nuclear receptor coactivator 1 (Homo sapiens, UniProt P37231); format: functional;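 further: agonist potency as compounds enhance coactivator SRC-1 recruitment to PPARgamma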
[9] = target: Peroxisome proliferator-activated receptor gamma/Nuclear receptor coactivator 3 (Homo sapiens, UniProt P37231); format: functional;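 further: agonist potency for raising coactivator recruitment to the receptor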
Cytochrome P450 2C9 = Cytochrome P450 2C9 (Homo sapiens, UniProt P11712)
Sequence of Cytochrome P450 2C9 (P11712 whole entry): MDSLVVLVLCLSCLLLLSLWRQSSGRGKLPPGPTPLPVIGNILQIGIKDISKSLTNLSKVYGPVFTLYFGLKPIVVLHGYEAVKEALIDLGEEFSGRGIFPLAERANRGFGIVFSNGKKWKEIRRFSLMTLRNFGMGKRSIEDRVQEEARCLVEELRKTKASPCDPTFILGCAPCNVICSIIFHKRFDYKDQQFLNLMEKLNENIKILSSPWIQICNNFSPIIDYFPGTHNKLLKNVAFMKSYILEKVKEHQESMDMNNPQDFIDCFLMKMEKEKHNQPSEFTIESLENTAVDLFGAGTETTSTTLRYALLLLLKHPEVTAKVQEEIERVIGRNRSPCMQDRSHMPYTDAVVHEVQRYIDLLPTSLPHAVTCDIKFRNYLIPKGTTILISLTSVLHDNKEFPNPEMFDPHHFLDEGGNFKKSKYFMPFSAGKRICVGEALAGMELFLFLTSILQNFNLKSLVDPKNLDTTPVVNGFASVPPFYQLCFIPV

Bcl-2-related protein A1 = target: T2, Bcl-2-related protein A1 (Mus musculus, UniProt Q07440); format: functional;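 further: confirmatory dose–response counterscreen on Bfl-1, used to check hits from a UBC13 polyubiquitin inhibitor campaign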
T2 sequence (Q07440 whole entry): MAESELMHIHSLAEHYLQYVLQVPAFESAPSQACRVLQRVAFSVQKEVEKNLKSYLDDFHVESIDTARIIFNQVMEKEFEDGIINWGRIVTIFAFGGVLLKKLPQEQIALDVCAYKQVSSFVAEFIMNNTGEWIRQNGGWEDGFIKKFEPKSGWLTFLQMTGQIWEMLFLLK

[10] = target: T3, Ubiquitin-conjugating enzyme E2 N (Homo sapiens, UniProt P61088); format: functional
T3 sequence (P61088 whole entry): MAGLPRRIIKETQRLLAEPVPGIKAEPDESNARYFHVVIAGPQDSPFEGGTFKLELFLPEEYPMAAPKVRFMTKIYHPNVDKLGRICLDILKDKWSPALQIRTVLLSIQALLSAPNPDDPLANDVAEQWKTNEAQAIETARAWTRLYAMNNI

[11] = target: T3, Ubiquitin-conjugating enzyme E2 N; format: functional; remark: listed apart in the source

Sequence of DNA dC->dU-editing enzyme APOBEC-3A (P31941 whole entry): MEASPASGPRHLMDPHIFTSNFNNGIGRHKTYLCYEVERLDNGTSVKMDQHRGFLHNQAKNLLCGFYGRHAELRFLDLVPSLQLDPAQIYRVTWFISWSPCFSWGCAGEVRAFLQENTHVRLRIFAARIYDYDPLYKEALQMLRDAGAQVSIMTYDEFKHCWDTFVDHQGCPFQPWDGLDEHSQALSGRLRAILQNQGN

COc1ccc(/C=N/n2c(S)nnc2-c2[nH]nc3c2CCC3)cc1
IC50 [1]: > 100 µM (inactive)
IC50 [2]: 3.61 µM (active)

COc1ccc(C(CNC(=O)c2cncc(Br)c2)N(C)C)cc1 (configuration not stated)
EC50 [3]: 26.9 µM (inactive)
EC50 (Mu-type opioid receptor): 18.5 µM (inactive)
EC50 [4]: > 92.5 µM (inactive)

Cc1cc(C(=O)N/N=C/c2ccc(-c3ccc(C)c(Cl)c3)o2)[nH]n1
IC50 (SUMO-activating enzyme): 45.5 µM (active)

Cc1ccccc1OCC(=O)Nc1cc(S(=O)(=O)N2CCCCC2)ccc1N1CCN(C)CC1
EC50 [5]: 0.634 µM (active)
EC50 (Mucolipin-3): 5.43 µM (active)
EC50 [6]: > 60 µM (not active)
EC50 (Ion channel NompC): > 29.9 µM (not active)

Cc1ccc(OCC(=O)Nc2ccc(NC(=O)c3cccs3)cc2)c(C)c1
EC50 [3]: > 92.5 µM (inactive)
EC50 (Mu-type opioid receptor): > 92.5 µM (inactive)
EC50 [4]: > 92.5 µM (inactive)

Sc1nnc(-c2ccncc2)n1/N=C/c1ccccc1Cl
IC50 [1]: > 100 µM (inactive)
IC50 [2]: 3.46 µM (active)

O=c1[nH]c(SCc2n[nH]c(=S)n2-c2ccccc2)nc2ccccc12
IC50 [1]: > 100 µM (inactive)
IC50 [2]: 3.8 µM (active)

COc1cc(-c2n[nH]c(=S)n2-c2ccc(C)cc2)cc(OC)c1OC
IC50 [1]: > 100 µM (inactive)
IC50 [2]: 3.38 µM (active)

N#Cc1cccc(NC(=O)N2CC3(CCN(C(=O)c4cccc(F)c4)CC3)C2)c1
AC50 (Cytochrome P450 3A4): inconclusive

Cn1c(=O)c(Oc2cc(Cl)cc(Cl)c2)nc2ccccc21
EC50 [7]: 21.1 µM (not active)
EC50 [8]: 24.5 µM (not active)
EC50 [9]: 28.8 µM (not active)

CC(C)n1c(SCC(=O)NCc2ccco2)nc2c1c(=O)n(C)c(=O)n2C
EC50 [7]: > 79.4 µM (not active)
EC50 [8]: > 79.4 µM (not active)
EC50 [9]: > 79.4 µM (not active)

CN(C)S(=O)(=O)c1cc([N+](=O)[O-])ccc1N1CCCCCC1
EC50 (Mucolipin-3): 10.1 µM (not active)
EC50 (Ion channel NompC): > 29.9 µM (not active)
AC50 (Cytochrome P450 2C9): 11.2 µM (inconclusive)

O=C(NCCCN1CCCC1)c1ccc(Cn2c(=S)[nH]c3ccc(Br)cc3c2=O)cc1
IC50 (Bcl-2-related protein A1): > 20 µM (inactive)
IC50 [10]: 16.7 µM (active)
IC50 [11]: > 20 µM (inactive)

— ChEMBL document CHEMBL1201862, “PubChem BioAssay data set” (2004)
